The results in this text go back to patent publication US10725042B2, “Methods of diagnosing and treating cancer” (Case Western Reserve University, priority 2012, dated 2020).

For one assay, the system named is DLD1/UDG−/− cells. The experiment in a line: Cell cycle analysis, UDG−/− cells. The assay is classed as cell-based, human. Conditions: pemetrexed 25 nM. The protocol:
For cell cycle analysis, 10^6 cells (DLD1/UDG^+/+ and DLD1/UDG^−/−) were plated in 100-mm tissue culture dishes and exposed to pemetrexed (25 nM). After 6, 24 and 72 h of culture, cells were fixed with 80% methanol and washed with ice-cold 1% BSA/PBS. DNA was stained with 20 μg/mL propidium iodide (Sigma-Aldrich) and 2.5 μg/mL of DNase-free RNase A (Roche). The DNA fluorescence of propidium iodide-stained cells was measured with an Elite ESP flow cytometer/cell sorter (Coulter, Miami, Fla.).

The test system of another assay is H460 xenografts. The assay can be described thus: H460 xenograft tumors in nude mice. In kind it is in vivo. Particulars: pemetrexed 150 mg/kg, MX 4 mg/kg, i.p. daily for 5 days. The protocol:
H460 or A549 tumor cells (5×10^6) were injected into bilateral flanks of female athymic NCr (nu/nu) mice (6 weeks old). When the tumor volumes reached 100-150 mm3, mice were divided into control and treatment groups (6-9 mice/group). Nude mice carrying tumors were treated with pemetrexed (150 mg/kg) alone, MX (4 mg/kg) alone or the combination of the two agents, by daily intraperitonial injection (i.p.) for 5 consecutive days. Tumor measurements were taken every 2 days. Tumor responses were quantified by tumor volume.

The test system of the next assay is H1299/PR-1 cells. The experiment in a line: Colony survival assay, H1299/PR-1 pemetrexed-resistant subline. Conditions: PR-1 vs H1299 parental, colony survival. In kind it is cell-based, human. The protocol:
For cells in suspension, colony survival was determined by crystal violet staining of colonies formed after 10-day exposure of 5×10^3 cells to pemetrexed in soft agar. For adherent cells, colony survival was determined by methylene blue staining of colonies formed after 10-day exposure of 100 cells to pemetrexed in 6-well culture dishes. Only colonies containing ≥50 cells were counted. Data points represent percent of colonies relative to untreated control averaged over 3 experiments.
H1299 cells were exposed to step-wise increasing concentrations of pemetrexed over a period of 4 months. UNG expression was monitored in the bulk population at 2, 8, 12 and 16 weeks prior to administration of the induction dosage and at 24 weeks in a population of bulk chronically exposed cells that had been without pemetrexed for 8 weeks. H1299 cells capable of growth in 50 nM pemetrexed selection pressure were subcloned by limiting dilution in 96 well plates. Independent sublines were designated H1299/PR-1 and H1299/PR-2.

Assay [1] has as its system uracil in DNA of UDG+/+ cells. The experiment in a line: Uracil in DNA by HPLC/MS/MS, UDG+/+ cells. The assay is classed as cell-based, human. Conditions: pemetrexed 10 μM, 6-72 hr. The protocol: UDG^−/− and UDG^+/+ cells were exposed to pemetrexed (10 μM) or 5-fluorouracil (10 μM) for 6, 24, 48 and 72 hrs. At indicated time points, cells were harvested and genomic DNA was extracted by phenol/chloroform. Forty μg of DNA were incubated with 10 U of purified UDG (New England Biolabs) in 60 μL of reaction buffer at 37° C. for 2 hrs. The reaction products were dried at 35° C. in a Turbovap under a stream of nitrogen and reconstituted in 150 μL 90% acetonitrile. The analyte was retained by an Atlantis Hilis Silica analytical column (2.1×100 mm, 3.5 μM) and eluted isocratically by a mixture of 90% acetonitrile and 10% 2.0 mM ammonium formate at a flow rate of 0.2 ml/min. The detection was done by an API 3200 MS/MS mass spectrometer.

In assay [2] the test system is AP sites in DNA of H460 cells. The assay can be described thus: AP site assay (ARP), H460 cells. The assay is classed as cell-based, human. Particulars: pemetrexed 0-400 nM, MX 6 mM, 24 hrs. Here is the method: The number of AP sites was measured using ARP (aldehyde reactive probe) reagent. The assay was performed as previously described. Briefly, cells (2×10^6) were collected after drug treatment and DNA was extracted. DNA (10 μg) was incubated with 15 μl of 1 mM ARP (Dojindo Laboratories, Kumamoto, Japan), and then precipitated and washed with ice-cold ethanol. The ARP-labeled DNA was then heat-denatured at 100° C. for 5 min, quickly chilled on ice and mixed with an equal volume of 2 M ammonium acetate. The DNA was then immobilized on a BA-S 85 nitrocellulose membrane (Schleicher and Schuell, Dassel, Germany) using a minifold II vacuum filter device (Schleicher and Schuell, Dassel, Germany). The membrane was incubated with 0.25% BSA-PBS containing streptavidin-conjugated horseradish peroxidase (BioGenex, SanRamon, Calif.) at room temperature for 40 min with gentle shaking. ARP-labeled AP sites were visualized by chemiluminescence (Amersham Corp, Piscataway, N.J.) followed by quantitative densitometry using NIH Image J software.

In assay [3] the test system is UNG expression in H460 cells. The experiment in a line: UNG protein and transcript expression after acute pemetrexed exposure, H460. The assay is classed as cell-based, human. Particulars: acute pemetrexed exposure 0-200 nM. The protocol: Protein extracts (25 μg) were resolved by SDS-PAGE and transferred to PVDF membrane (Millipore). Non-specific binding sites were blocked in 5% milk in PBST (1×PBS+0.1% Tween-20). Incubation with primary antibody at 4° C. in 5% BSA/PBS was followed by incubation with HRP-conjugated secondary antibody in 2.5% milk in PBST. Proteins were visualized with ECL reagent (Amersham Corp). Chromatinbound proteins were extracted from formaldehyde (1%) cross-linked cells using Pierce Chromatin Prep Module (Thermo Pierce). Antibody sources: UNG-23936 (39 kDa band, nuclear UNG) and PCNA (Abcam); Tubulin (Calbiochem); γH2AX and Histone-H3 (Millipore); Cleaved PARP (Cell Signaling); and p-chk1, chk1, cdc2, and p-cdc2 (Santa Cruz).
Lung cancer cDNA microarray was purchased from Origene. For cell lines, total RNA was extracted from cells using RNAqueous-4PCR kit (Ambion, Austin, Tex.). Random hexamers (Invitrogen) were used to PCR amplify cDNA from 1 μg of RNA extract. TaqMAN MGB probes (FAMTM dye labeled, Applied Biosystems) for nuclear UNG (UNG2), SMUG1, MBD4, TDG, TYMS and βPol amplified cDNA using 40 cycles of PCR in an ABI 7500 Fast Real-Time PCR System (Applied Biosystems, Foster City, Calif.). Target quantification was achieved after normalization to β-actin amplification as an endogenous control and is presented as relative quantification (RQ) values or log-mean RQ values.

`Nc1nc2[nH]cc(CCc3ccc(C(=O)N[C@@H](CCC(=O)O)C(=O)O)cc3)c2c(=O)[nH]1` [pemetrexed]: the “cells arrested in S-phase” value is about 25% in the assay with DLD1/UDG−/− cells (6 hr) and 36% in the assay on DLD1/UDG−/− cells (24 hr). Moreover, in the assay on DLD1/UDG−/− cells (72 hr), the “cells in S-phase” value is recorded as 35%. Besides, the “cells undergone apoptosis (subG1)” value in the assay with DLD1/UDG−/− cells (72 hr) is about 22%. In addition, the antitumour activity entry with H460 xenografts (H460 tumours) is recorded as “moderately sensitive”. In addition, the mean tumour volume with H460 xenografts (H460 xenografts at 15 days, PBS control 2100±106) was found to be 1726±176 mm3. In addition, the “relative resistance to pemetrexed compared to parental cells” value in the assay with H1299/PR-1 cells is on record as 25 fold. Moreover, the “uracil detected in DNA” value in assay [1] is “very low”. Further, the “ARP-detected AP sites” value in assay [2] is “increased as the concentration of pemetrexed increased”. Moreover, the “UNG protein and transcript expression” value in assay [3] is “time- and dosedependent induction”.
